Data taken from article PMC11078216, “Discovery of potent and selective activity-based probes (ABPs) for the deubiquitinating enzyme USP30” (RSC Chemical Biology, 2024).

Molecular target: T1, USP30 (Homo sapiens, UniProt Q70CQ3)
T1 construct: Catalog #E-582 residues 57-517; purchased E-582
T1 sequence (Q70CQ3 57-517): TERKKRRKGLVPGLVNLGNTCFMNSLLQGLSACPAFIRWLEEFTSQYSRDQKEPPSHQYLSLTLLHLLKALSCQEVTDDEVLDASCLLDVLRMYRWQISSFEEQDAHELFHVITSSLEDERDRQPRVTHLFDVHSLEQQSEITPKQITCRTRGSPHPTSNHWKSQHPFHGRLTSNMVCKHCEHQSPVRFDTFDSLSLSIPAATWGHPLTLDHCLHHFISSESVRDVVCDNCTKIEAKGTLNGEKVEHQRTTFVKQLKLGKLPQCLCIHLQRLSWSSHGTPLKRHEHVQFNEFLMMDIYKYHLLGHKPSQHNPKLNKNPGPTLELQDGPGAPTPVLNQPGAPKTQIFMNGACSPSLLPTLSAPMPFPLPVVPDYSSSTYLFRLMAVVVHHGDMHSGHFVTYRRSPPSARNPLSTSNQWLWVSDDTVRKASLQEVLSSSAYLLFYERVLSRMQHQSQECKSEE
Assay: USP30 biochemical IC50 fluorescence polarisation assay using Ub-Lys(TAMRA)-Gly
Conditions: 30 min incubation, USP30 5 nM, Ub-Lys(TAMRA)-Gly 100 nM; read-out: IC50 against USP30
Method: We first confirmed biochemical inhibition of USP30 with our probes in a fluorescence polarisation (FP) assay using a TAMRA labelled Lys-Gly dipeptide linked to ubiquitin via an isopeptide bond (Ub-Lys(TAMRA)-Gly). USP30 (5 nM) was incubated across a concentration series of test compound for 30 min, followed by FP measurement after addition of Ub-Lys(TAMRA)-Gly (100 nM).
4. Biochemical and biological methods and proteomics
1) Biochemical USP30 fluorescence polarisation (FP) assay using Ub-Lys(TAMRA)-Gly a. USP30 biochemical IC50 assay
Reactions were performed in triplicate in black 384 well plates (Greiner #784076) in a final reaction volume of 21 μL. Compound dilutions were prepared at 21× final concentration (2000 nM for a final concentration of 100 nM) in 50% DMSO/water. USP30 was diluted in reaction buffer A (40 mM Tris, pH 7.5, 0.005% Tween 20, 0.5 mg/ml BSA, 5 mM betamercaptoethanol) and 10 μL of diluted 10.5 nM USP30 was added to the compound (final concentration 5 nM). Enzyme and compound were incubated for 30 min at room temperature. Reactions were initiated by the addition of 10 ul 200 nM (final concentration 100 nM) of TAMRA labeled peptide linked to ubiquitin via an iso-peptide bond (Ub-Lys(TAMRA)-Gly, UbiQ-012). Reactions were read immediately after substrate addition using a Pherastar Plus (BMG Labtech; λEx 531 nm, λEm 579 nm). IC50 values were determined by plotting percentage USP30 activity against compound concentration and fitting a four -parameter dose-response curve (Graphpad Prism 5.03). […]
Kinetic progress curves were fitted to equation y = (vi/kobs) (1 − exp(−kobs*x)) to determine the kobs value (for first 30 min data). The kobs value was then plotted against the inhibitor concentration to […]

Structure (SMILES)	IC50 [nM]
C#Cc1cccc(-c2cc(NC(=O)CC3CCN(C#N)C3)on2)c1 (stereo not shown) [IMP-2587]	12.6
N#CN1CC[C@H](CC(=O)Nc2cc(-c3cccc(Cl)c3)no2)C1 [compound 1, reference compound]	18.3
N#CN1CC[C@@H](NC(=O)c2cc(-c3ccccc3Oc3ccc(N=[N+]=[N-])cc3)n[nH]2)C1 [IMP-2586]	16.3
N#CN1CC[C@@H](NC(=O)c2cc(-c3ccccc3Oc3ccccc3)n[nH]2)C1 [compound 3, reference compound]	4.8
